Drawing on patent US20020065317A1, “Calcium salt compositions having improved solubility and method for preparing them” (priority 1998, published 2002), this text covers dissolution time for one substance.

This data set in a line: Dissolution time: time required fully to dissolve 1 gram of powder into 100 ml of water. The class given is physicochemical. Conditions: 1 gram into 100 ml of water at 20° C.; only with vigorous stirring. On the procedure:
The dissolution rate of the resulting powder is defined by the dissolution time, viz. the time required fully to dissolve 1 gram thereof into 100 ml of water at 20° C. The dissolution time of the calcium salts compositions of the invention is not more than 60 seconds and preferably not more than 10 seconds. The dissolution time of the powder obtained according to Example 1 is found to be 3.036 sec, while the dissolution time of the untreated calcium gluconate granules is 1.3 minutes, and this only when vigorous stirring is carried out to hasten as much as possible the dissolution. Therefore the powder of Example 1 is an instantly soluble powder, as this expression is to be construed in this, specification.

calcium gluconate had a dissolution time of 1.3 min.
